Data taken from US11999758B2, “Inhibitors of the YAP/TAZ-TEAD interaction and their use in the treatment of cancer” (INVENTIVA, priority 2018, dated 2024).
pIC50: −log10 of the molar value.

Target: T1, YAP-TEAD interaction (Homo sapiens, UniProt P28347)
T1 construct: expressed in transfected cells; host or cells: HEK293 GripTite 293 MSR (Invitrogen R795-07)
Experiment: Cell-based TEAD-GAL4 transactivation assay (luciferase reporter)
Conditions: HEK293 cells transfected with TEAD1-Gal4, YAP mutant (S127A, S397A) and luciferase reporter, compounds 0.1 μM to 30 μM; for Emax: HEK293, 24 h, read-out: TEAD-GAL4 Transactivation activity Max Act; for pIC50: 24 h
Procedure: To identify inhibitors of YAP-TEAD interaction, a transient transactivation assay was carried out on HEK293 cell line (HEK293 GripTite™ 293 MSR (Invitrogen R795-07)) using plasmids containing the full length TEAD1 sequences, the full length YAP mutant (S127A, S397A) and a luciferase gene reporter. All expression constructs were performed into a pSG5 backbone plasmid in which the SV40 promoter was replaced by the CMV promoter. The TEAD1 construct was prepared by cloning the full-length human TEAD1 cDNA in fusion with the Gal4 DNA Binding Domain (AA 1-148) into pSG5_CMV to create the TEAD1 (FL)_hum_pSG5Gal4_CMV. The full-length YAP mutant (S127A, S397A) was also cloned into pSG5_CMV to create the YAP (FL)_hum_pSG5_mutS127A_S397A_CMV. The reporter plasmid GAL4(5×RE)_TK(−105/+56)_pGL3-Basic contains 5 copies of the GAL4 responsive element (5′-TCGGAGGACAGTACTCC-3′) upstream of the thymidine kinase (TK) promoter (−105/+56) inserted in a pGL3-Basic vector. To evaluate the selectivity of our compounds in blocking the YAP-TEAD interaction, a counter-screening protein-protein interaction transactivation assay was also established. Briefly, two other expression plasmids, the pBD-P53 which expresses the P53 (AA 72-390) in fusion with Gal4 and the pAD-SV40T which expresses the SV40 large T antigen (AA 84-708,AgT), were created. HEK293 cells were seeded at 5×10^4 cells/well in 96 well plates (assay plates) in DMEM medium containing 4.5 g/L D-glucose, 10% high inactivated (HI) fetal bovine serum 1% Glutamax, 1% non-essential amino acid and 1% sodium pyruvate and 0.5% penicillin/streptomycin at 37° C. in a humidified atmosphere of 8% CO2. After 24 h, transfections were performed using Jet-PEI as transfectant (101B-010 Polyplus Transfection), according to the instructions of the manufacturer (N/P=10) and a ratio YAP/TEAD=10 (per well: 50 ng of YAP(FL), 5 ng of TEAD(FL) and 50 ng of reporter plasmid). Six hours after cell transfection, the plates (‘assay plate’) were washed with 100 μl PBS per well and cells were treated with compounds in semi-log from 0.1 μM to 30 μM or DMSO 0.5% as control in DMEM, 4.5 g/L D-Glucose without phenol red, 0.3% BSA, 1% glutamax, 1% NEAA, 1% sodium pyruvate. 24 h later, the luciferase activity was determined after addition of 100 μl of Steady Glo™ luciferase assay system (Promega E2550) according to the manufacturer's directions. Luciferase activity in cell extracts was measured by reading luminescence using the Envision device.
The cellular response was determined by fitting the concentration response curves using a 3-parameter curve fit equation and determining the concentration that inhibited the luciferase activity by 50%.

T1 sequence (P28347 whole entry): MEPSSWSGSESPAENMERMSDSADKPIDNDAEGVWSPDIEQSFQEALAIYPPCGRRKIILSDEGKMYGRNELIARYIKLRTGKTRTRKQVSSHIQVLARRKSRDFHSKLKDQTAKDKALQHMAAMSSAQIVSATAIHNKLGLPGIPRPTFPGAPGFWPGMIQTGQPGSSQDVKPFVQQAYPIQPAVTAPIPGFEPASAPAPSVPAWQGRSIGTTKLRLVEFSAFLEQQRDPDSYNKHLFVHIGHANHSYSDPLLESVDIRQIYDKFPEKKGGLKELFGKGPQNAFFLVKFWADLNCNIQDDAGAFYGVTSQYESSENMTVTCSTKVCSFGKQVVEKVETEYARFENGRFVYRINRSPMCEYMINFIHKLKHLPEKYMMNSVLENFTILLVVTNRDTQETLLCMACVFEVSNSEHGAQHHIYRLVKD

CCCNC(=O)c1csc2c(N(CC)/N=C/c3ccc4c(c3)COB4O)ncnc12 [Ex112, 4-[ethyl-[(E)-(1-hydroxy-3H-2,1-benzoxaborol-5-yl)methyleneamino]-amino]-N-propyl-thieno[3,2-d]pyrimidine-7-carboxamide]
Emax: 79% | pIC50: 5.73

CCN(/N=C/c1ccc2c(c1)COB2O)c1ncnc2c(C(=O)N(C)C)csc12 [Ex113, 4-[ethyl-[(E)-(1-hydroxy-3H-2,1-benzoxaborol-5-yl)methyleneamino]-amino]-N,N-dimethyl-thieno[3,2-d]pyrimidine-7-carboxamide]
Emax: 70% | pIC50: 5.28

CCCCN(CCCC)C(=O)c1csc2c(N(CC)/N=C/c3ccc4c(c3)COB4O)ncnc12 [Ex114, N,N-dibutyl-4-[ethyl-[(E)-(1-hydroxy-3H-2,1-benzoxaborol-5-yl)methyleneamino]amino]thieno[3,2-d]pyrimidine-7-carboxamide]
Emax: 83% | pIC50: 5.76

CCN(/N=C/c1ccc2c(c1)COB2O)c1ncnc2c(C(=O)NC3COC3)csc12 [Ex115, 4-[ethyl-[(E)-(1-hydroxy-3H-2,1-benzoxaborol-5-yl)methyleneamino]amino]-N-(oxetan-3-yl)thieno[3,2-d]pyrimidine-7-carboxamide]
Emax: 79% | pIC50: 5.76

CCN(/N=C/c1ccc2c(c1)COB2O)c1ncnc2c(C(=O)NCCCCOC)csc12 [Ex116, 4-[ethyl-[(E)-(1-hydroxy-3H-2,1-benzoxaborol-5-yl)methyleneamino]-amino]-N-(4-methoxybutyl)thieno[3,2-d]pyrimidine-7-carboxamide]
Emax: 86% | pIC50: 5.71

CC1CCC(c2ccc3c(c2)COB3O)=NN1c1ncnc2occc12 (centres unmarked) [Ex117, 4-[6-(1-hydroxy-3H-2,1-benzoxaborol-5-yl)-3-methyl-4,5-dihydro-3H-pyridazin-2-yl]furo[2,3-d]pyrimidine]
Emax: 82% | pIC50: 6.16

CC1CCC(c2ccc3c(c2)COB3O)=NN1c1ncnc2ccsc12 (centres unmarked) [Ex121, 4-[6-(1-hydroxy-3H-2,1-benzoxaborol-5-yl)-3-methyl-4,5-dihydro-3H-pyridazin-2-yl]thieno[3,2-d]pyrimidine]
Emax: 80% | pIC50: 6.14

CC1CCC(c2ccc3c(c2)COB3O)=NN1c1ncnc2c3c(sc12)CCCC3 (centres unmarked) [Ex122, 4-[6-(1-hydroxy-3H-2,1-benzoxaborol-5-yl)-3-methyl-4,5-dihydro-3H-pyridazin-2-yl]-6,7,8,9-tetrahydrobenzothiopheno[3,2-d]pyrimidine]
Emax: 94% | pIC50: 6.09

CSc1nc2ncnc(N3N=C(c4ccc5c(c4)COB5O)CCC3C)c2s1 (centres unmarked) [Ex123, 7-[6-(1-hydroxy-3H-2,1-benzoxaborol-5-yl)-3-methyl-4,5-dihydro-3H-pyridazin-2-yl]-2-methylsulfanyl-thiazolo[4,5-d]pyrimidine]
Emax: 96% | pIC50: 6.70

COCc1csc2c(N(C)/N=C/c3ccc4c(c3)COB4O)ncnc12 [Ex126, N-[(E)-(1-hydroxy-3H-2,1-benzoxaborol-5-yl)methyleneamino]-7-(methoxymethyl)-N-methyl-thieno[3,2-d]pyrimidin-4-amine]
Emax: 83% | pIC50: 6.15

COc1ccc2c(c1)C(N(CC(C)C)/N=C/c1ccc(B(O)O)c(OC)c1)=NS2(=O)=O [Ex 2, [4-[(E)-[isobutyl-(5-methoxy-1,1-dioxo-1,2-benzothiazol-3-yl)hydrazono]methyl]-2-methoxy-phenyl]boronic acid]
Emax: 95% | pIC50: 5.64

COc1cc(OC)c2c(c1)C(N(CC(C)C)/N=C/c1ccc(B(O)O)c(OC)c1)=NS2(=O)=O [Ex 3, [4-[(E)-[(5,7-dimethoxy-1,1-dioxo-1,2-benzothiazol-3-yl)-isobutyl-hydrazono]methyl]-2-methoxy-phenyl]boronic acid]
Emax: 89% | pIC50: 5.58

CCN(/N=C/c1ccc(B(O)O)c(OC)c1)C1=NS(=O)(=O)c2ccccc21 [Ex 4, [4-[(E)-[(1,1-dioxo-1,2-benzothiazol-3-yl)-ethyl-hydrazono]methyl]-2-methoxy-phenyl] boronic acid]
Emax: 76% | pIC50: 5.21

COCCN(/N=C/c1ccc(B(O)O)c(OC)c1)C1=NS(=O)(=O)c2ccccc21 [Ex 5, [4-[(E)-[(1,1-dioxo-1,2-benzothiazol-3-yl)-(2-methoxyethyl)-hydrazono]methyl]-2-methoxy-phenyl]boronic acid]
Emax: 67% | pIC50: 5.15

CC(C)CN(/N=C/c1ccc(B(O)O)c(Cl)c1)C1=NS(=O)(=O)c2ccccc21 [Ex 6, [2-chloro-4-[(E)-[(1,1-dioxo-1,2-benzothiazol-3-yl)-isobutyl-hydrazono]methyl]phenyl] boronic acid]
Emax: 62%

COc1cc(/C=N/N(CC(C)C)C2=NS(=O)(=O)c3ccc(C)cc32)ccc1B(O)O [Ex 7, [4-[(E)-[isobutyl-(5-methyl-1,1-dioxo-1,2-benzothiazol-3-yl)hydrazono]-methyl]-2-methoxy-phenyl]boronic acid]
Emax: 95% | pIC50: 5.46

CC(C)CN(/N=C/c1ccc(B(O)O)cc1)C1=NS(=O)(=O)c2ccccc21 [Ex 8, [4-[(E)-[(1,1-dioxo-1,2-benzothiazol-3-yl)-isobutyl-hydrazono]methyl]-phenyl] boronic acid]
Emax: 74%

COCCOc1ccc2c(c1)C(N(CC(C)C)/N=C/c1ccc(B(O)O)c(OC)c1)=NS2(=O)=O [Ex 9, [4-[(E)-[isobutyl-[5-(2-methoxyethoxy)-1,1-dioxo-1,2-benzothiazol-3-yl]hydrazono]methyl]-2-methoxy-phenyl]boronic acid]
Emax: 98% | pIC50: 5.63

COc1cc(/C=N/N(CC(C)C)C2=NS(=O)(=O)c3cc(C#N)ccc32)ccc1B(O)O [Ex 10, [4-[(E)-[(6-cyano-1,1-dioxo-1,2-benzothiazol-3-yl)-isobutyl-hydrazono]-methyl]-2-methoxy-phenyl]boronic acid]
Emax: 78% | pIC50: 5.36

COCCOc1cc(/C=N/N(CC(C)C)C2=NS(=O)(=O)c3ccccc32)ccc1B(O)O [Ex 11, [4-[(E)-[(1,1-dioxo-1,2-benzothiazol-3-yl)-isobutyl-hydrazono]methyl]-2-(2-methoxyethoxy)phenyl]boronic acid]
Emax: 85%

COc1cc(/C=N/N(CC(C)C)C2=NS(=O)(=O)c3ccc(OCCCO)cc32)ccc1B(O)O [Ex 12, [4-[(E)-[[5-(3-hydroxypropoxy)-1,1-dioxo-1,2-benzothiazol-3-yl]-isobutyl-hydrazono]methyl]-2-methoxy-phenyl]boronic acid]
Emax: 98% | pIC50: 5.53

COc1cc(/C=N/N(CC(C)C)c2ncnc3c(OC)cccc23)ccc1B(O)O [Ex 13, [4-[(E)-[isobutyl-(8-methoxyquinazolin-4-yl)hydrazono]methyl]-2-methoxy-phenyl] boronic acid]
Emax: 95% | pIC50: 5.24

CCOc1cc(/C=N/N(CC(C)C)C2=NS(=O)(=O)c3ccccc32)ccc1B(O)O [Ex 14, [4-[(E)-[(1,1-dioxo-1,2-benzothiazol-3-yl)-isobutyl-hydrazono]methyl]-2-ethoxyphenyl]boronic acid]
Emax: 90%

COc1cc(OC)c2c(c1)C(N(CC(C)C)/N=C/c1ccc(B(O)O)c(Cl)c1)=NS2(=O)=O [Ex 15, [2-chloro-4-[(E)-[(5,7-dimethoxy-1,1-dioxo-1,2-benzothiazol-3-yl)-isobutyl-hydrazono]methyl]phenyl]boronic acid]
Emax: 95%

CCC(C)N(/N=C/c1ccc(B(O)O)c(OC)c1)C1=NS(=O)(=O)c2ccccc21 (centres unmarked) [Ex 16, [4-[(E)-[(1,1-dioxo-1,2-benzothiazol-3-yl)-sec-butyl-hydrazono]methyl]-2-methoxyphenyl]boronic acid]
Emax: 76% | pIC50: 5.38

COc1cc(OC)c2ncnc(N(CC(C)C)/N=C/c3ccc(B(O)O)c(OC)c3)c2c1 [Ex 17, [4-[(E)-[(6,8-dimethoxyquinazolin-4-yl)-isobutyl-hydrazono]methyl]-2-methoxyphenyl]boronic acid]
Emax: 98% | pIC50: 5.11
